Laboratory results as given in article PMC10243163, “A frog‐derived antimicrobial peptide as a potential anti‐biofilm agent in combating Staphylococcus aureus skin infection” (Journal of Cellular and Molecular Medicine, 2023).
In brackets after ≈: the same amount, converted by molar mass. Where two headings read alike, the source gives them in different places. Positions of bridges follow the written chain, without caps; N, C: chain ends. Residues, ends and D or L forms follow the SMILES beside them. No end group written: not given here.

Columns and labels:
S. aureus ATCC 6538 [1] = assay type: cell-based, Staphylococcus aureus
Method: (§1) Antimicrobial assays were conducted using standard broth micro‐dilutions, as mentioned previously.[11] Gram‐positive bacteria S. aureus (ATCC 6538), Methicillin‐resistant S. aureus (MRSA; NCTC 12493), […] (NCTC 12697), Gram‐negative bacteria Escherichia coli (ATCC 8739), Klebsiella pneumoniae (ATCC 43816), Pseudomonas aeruginosa (ATCC 9027), Acinetobacter baumannii (ATCC BAA 747), and yeast, Candida albicans (ATCC 10231) were used in the test. The experiments were conducted in three independent runs.

MRSA NCTC 12493 [2] = assay type: cell-based, Methicillin‐resistant S. aureus
Method: as §1

E. faecalis NCTC 12697 [3] = assay type: cell-based
E. coli ATCC 8739 [4] = assay type: cell-based, Escherichia coli
Method: as §1

K. pneumoniae ATCC 43816 = assay type: cell-based, Klebsiella pneumoniae
Method: as §1

P. aeruginosa ATCC 9027 [5] = assay type: cell-based, Pseudomonas aeruginosa
Method: as §1

C. albicans ATCC 10231 = assay type: cell-based, Candida albicans
Method: as §1

horse erythrocytes = assay: Haemolytic activity; assay type: cell-based; conditions: 128 μM peptide; horse erythrocytes 2% v/v, 37°C, 2 h; 0.1% Triton X‐100 positive control; absorbance 570 nm; three independent runs
Method: The haemolytic activity of peptides was conducted using horse erythrocytes (2%, v/v). Peptide solutions were mixed with washed horse erythrocyte suspension at 37°C for 2 h. Triton X‐100 (0.1%) was used as a positive control. The mixture was then centrifuged at 930 g for 5 min. The absorbance of the supernatants was detected at 570 nm. The haemolysis rate was calculated using the formula: Haemolysis%=Sample group−negative group/positive group−negative group×100%.
This experiment was performed in three independent runs.

[6] = tested on: Gram‐positive and Gram‐negative test bacteria; assay type: cell-based
Method: as §1

S. aureus ATCC 6538 [7] = assay type: cell-based, Staphylococcus aureus; conditions: ATCC 6538, 24 h
Method: (§2) Peptide solutions were first mixed with bacterial cultures (5 × 10^5 CFU/mL) and incubated at 37°C for 24 h. The planktonic bacterial cells were gently removed by washing with PBS the next day, and methanol was utilised to fix the biofilm. Crystal violet (0.1% v/v), PBS and acetic acid (30%, v/v) were subsequently used to stain biofilm, remove remaining stains and re‐dissolve stains, respectively. The absorbance was determined at 595 nm. The experiments were conducted in three independent runs.

MRSA NCTC 12493 [8] = assay type: cell-based, Methicillin‐resistant S. aureus; conditions: NCTC 12493, 24 h
Method: as §2

E. faecalis NCTC 12697 [9] = assay type: cell-based; conditions: NCTC 12697, 24 h
Method: as §2

E. coli ATCC 8739 [10] = assay type: cell-based, Escherichia coli; conditions: ATCC 8739, 24 h
Method: as §2

P. aeruginosa ATCC 9027 [11] = assay type: cell-based, Pseudomonas aeruginosa; conditions: ATCC 9027, 24 h
Method: as §2

[12] = tested on: Gram‐positive and Gram‐negative test bacteria; assay type: cell-based; conditions: geometric mean of MICs against the three Gram‐negative strains
[13] = geometric mean of MICs against all test bacteria
[14] = geometric mean of MICs against the three Gram‐positive strains

| Molecule | MBC (S. aureus ATCC 6538 [1]) | MIC (S. aureus ATCC 6538 [1]) [µM] | MBC (MRSA NCTC 12493 [2]) [µM] | MIC (MRSA NCTC 12493 [2]) [µM] | MBC (E. faecalis NCTC 12697 [3]) [µM] | MIC (E. faecalis NCTC 12697 [3]) [µM] | MBC (E. coli ATCC 8739 [4]) [µM] | MIC (E. coli ATCC 8739 [4]) [µM] | MBC (K. pneumoniae ATCC 43816) [µM] | MIC (K. pneumoniae ATCC 43816) [µM] | MBC (P. aeruginosa ATCC 9027 [5]) [µM] | MIC (P. aeruginosa ATCC 9027 [5]) [µM] | MBC (C. albicans ATCC 10231) [µM] | MIC (C. albicans ATCC 10231) [µM] | Haemolysis (horse erythrocytes) | GM MIC, total bacteria [6, 13] [µM] | GM MIC, G+ [6, 14] [µM] | GM MIC, G− [12] [µM] | also measured |
| --- | --- | --- | --- | --- | --- | --- | --- | --- | --- | --- | --- | --- | --- | --- | --- | --- | --- | --- | --- |
| FPLIAGLAANFLPKIL [OG9‐De] | > 128 µM | > 128 | > 128 | > 128 | > 128 | > 128 | > 128 | > 128 | > 128 | > 128 | > 128 | > 128 | > 128 | > 128 | no apparent haemolysis |  |  |  |  |
| FPLIARLAAKFLPKIL-NH2 [OG9c‐De‐NH2] | 2/2 μM |  | 2 | 2 | 8 | 8 | 2 | 2 | 4 | 4 | 8 | 8 | 16 | 16 |  | 3.6 | 3.2 | 4 | MBIC (S. aureus ATCC 6538 [7]): 1 µM; MBIC (MRSA NCTC 12493 [8]): 1 µM; MBIC (E. faecalis NCTC 12697 [9]): 16 µM; MBIC (E. coli ATCC 8739 [10]): 16 µM; MBIC (P. aeruginosa ATCC 9027 [11]): 64 µM |
| CC[C@H](C)[C@@H]1NC(=O)[C@H](C)NC(=O)[C@@H](NC(=O)[C@H](CC(C)C)NC(=O)[C@@H](NC(=O)[C@H](CCCCN)NC(=O)[C@@H]2CCCN2C(=O)[C@H](CC(C)C)NC(=O)[C@H](Cc2ccccc2)NC(=O)[C@H](CC(N)=O)NC(=O)[C@H](C)NC(=O)[C@H](C)NC(=O)[C@H](CC(C)C)NC(=O)CNC(=O)[C@H](C)NC(=O)[C@@H](NC(=O)[C@H](CC(C)C)NC(=O)[C@@H]2CCCN2C(=O)[C@@H](N)Cc2ccccc2)[C@@H](C)CC)[C@@H](C)CC)CSSC[C@@H](C(=O)O)NC(=O)[C@H](CCCCN)NC(=O)[C@H](CCCNC(=N)N)NC(=O)[C@H](C)NC1=O [OG9a] (H-FPLIAGLAANFLPKILCAIARKC-OH; disulfide 17-23) | 8 µM (≈ 19.5 µg/mL) | 4 (≈ 9.77 µg/mL) | 16 (≈ 39.1 µg/mL) | 16 (≈ 39.1 µg/mL) | 16 (≈ 39.1 µg/mL) | 16 (≈ 39.1 µg/mL) | 8 (≈ 19.5 µg/mL) | 8 (≈ 19.5 µg/mL) | 16 (≈ 39.1 µg/mL) | 16 (≈ 39.1 µg/mL) | > 128 | > 128 | > 128 | > 128 | 90% | 20.2 | 10.1 | 40.3 |  |
| CC[C@H](C)[C@@H]1NC(=O)[C@H](C)NC(=O)[C@@H](NC(=O)[C@H](CC(C)C)NC(=O)[C@@H](NC(=O)[C@H](CCCCN)NC(=O)[C@@H]2CCCN2C(=O)[C@H](CC(C)C)NC(=O)[C@H](Cc2ccccc2)NC(=O)[C@H](CC(N)=O)NC(=O)[C@H](C)NC(=O)[C@H](CCCCN)NC(=O)[C@H](CC(C)C)NC(=O)CNC(=O)[C@H](C)NC(=O)[C@@H](NC(=O)[C@H](CC(C)C)NC(=O)[C@@H]2CCCN2C(=O)[C@@H](N)Cc2ccccc2)[C@@H](C)CC)[C@@H](C)CC)CSSC[C@@H](C(=O)O)NC(=O)[C@H](CCCCN)NC(=O)[C@H](CCCNC(=N)N)NC(=O)[C@H](C)NC1=O [OG9b] (H-FPLIAGLKANFLPKILCAIARKC-OH; disulfide 17-23) | 128 µM (≈ 320 µg/mL) | 64 (≈ 160 µg/mL) | > 128 | > 128 | > 128 | > 128 | 8 (≈ 20 µg/mL) | 8 (≈ 20 µg/mL) | 16 (≈ 40 µg/mL) | 16 (≈ 40 µg/mL) | 64 (≈ 160 µg/mL) | 32 (≈ 80 µg/mL) | > 128 | > 128 | 50% | 50.8 | 161.3 | 16 |  |
| CC[C@H](C)[C@@H]1NC(=O)CNC(=O)[C@@H](NC(=O)[C@H](CC(C)C)NC(=O)[C@@H](NC(=O)[C@H](CCCCN)NC(=O)[C@@H]2CCCN2C(=O)[C@H](CC(C)C)NC(=O)[C@H](Cc2ccccc2)NC(=O)[C@H](CCCCN)NC(=O)[C@H](C)NC(=O)[C@H](C)NC(=O)[C@H](CC(C)C)NC(=O)[C@H](CCCNC(=N)N)NC(=O)[C@H](C)NC(=O)[C@@H](NC(=O)[C@H](CC(C)C)NC(=O)[C@@H]2CCCN2C(=O)[C@@H](N)Cc2ccccc2)[C@@H](C)CC)[C@@H](C)CC)CSSC[C@@H](C(=O)O)NC(=O)[C@H](CCCCN)NC(=O)[C@H](CC(N)=O)NC(=O)[C@H](C)NC1=O [OG9c] (H-FPLIARLAAKFLPKILCGIANKC-OH; disulfide 17-23) | 4 µM (≈ 10 µg/mL) | 4 (≈ 10 µg/mL) | 8 (≈ 20 µg/mL) | 8 (≈ 20 µg/mL) | 16 (≈ 40 µg/mL) | 16 (≈ 40 µg/mL) | 4 (≈ 10 µg/mL) | 4 (≈ 10 µg/mL) | 8 (≈ 20 µg/mL) | 8 (≈ 20 µg/mL) | 16 (≈ 40 µg/mL) | 16 (≈ 40 µg/mL) | 64 (≈ 160 µg/mL) | 64 (≈ 160 µg/mL) |  |  |  |  | GM MIC, G+ [6]: 8/8/8 μM; GM MIC, G− [6]: 8/8/8 μM; GM MIC, total bacteria [6]: 8/8/8 μM |
| FPLIAGLAANFLPKIL-NH2 [OG9‐De‐NH2] | > 128 µM | > 128 | > 128 | > 128 | > 128 | > 128 | > 128 | > 128 | > 128 | > 128 | > 128 | > 128 | > 128 | > 128 | no apparent haemolysis |  |  |  |  |
| FPLIARLAAKFLPKIL [OG9c‐De] | 16 µM | 16 | 16 | 16 | 64 | 64 | 16 | 16 | 32 | 32 | 64 | 16 | 16 | 16 |  |  |  |  | GM MIC, G+ [6]: 25.4 µM; GM MIC, G− [6]: 20.2 µM; GM MIC, total bacteria [6]: 22.6 µM |
